# Measured values as given in US8597875B2, “Method for diagnosing liver toxicity with sex specific biomarkers” (BASF SE, priority 2008, dated 2013).
# Legend:
# male rats = experiment: Plasma metabolite profiling (GC-MS/LC-MS) for liver toxicity markers, 28-day gavage study, male rats; assay type: in vivo, rat; details: male rats
# Experimental: (§1) A group of each 5 male and female rats was dosed once daily with the indicated compounds (see tables below) at 10 and 100 mg/kg body weight per gavage over 28 days. Additional groups of each 5 male and female animals served as controls. Before starting the treatment period, animals, which were 62-64 days old when supplied, were acclimatized to the housing and environmental conditions for 7 days. All animals of the animal population were kept under the same constant temperature (20-24±3° C.) and the same constant humidity (30-70%). Each animal of the animal population was kept in a separate cage. The animals of the animal population are fed ad libitum. The food to be used was be essentially free of chemical or microbial contaminants. Drinking water was also offered ad libitum. Accordingly, the water was be free of chemical and microbial contaminants as laid down in the European Drinking Water Directive 98/83/EG. The illumination period was 12 hours light followed by 12 hours darkness (12 hours light, from 6:00 to 18:00, and 12 hours darkness, from 18:00 to 6:00).
# (§2) In the morning of day 7, 14, and 28, blood was taken from the retroorbital venous plexus from fasted anaesthetized animals. From each animal, 1 ml of blood was collected with EDTA as anticoagulant. The samples were be centrifuged for generation of plasma. All plasma samples were covered with a N2 atmosphere and then stored at −80° C. until analysis.
# (§3) For mass spectrometry-based metabolite profiling analyses plasma samples were extracted and a polar and a non-polar fraction was obtained. For GC-MS analysis, the non-polar fraction was treated with methanol under acidic conditions to yield the fatty acid methyl esters. Both fractions were further derivatised with O-methyl-hydroxyamine hydrochloride and pyridine to convert Oxo-groups to O-methyloximes and subsequently with a silylating agent before analysis. In LC-MS analysis, both fractions were reconstituted in appropriate solvent mixtures. HPLC was performed by gradient elution on reversed phase separation columns. For mass spectrometric detection metanomics proprietary technology was applied which allows target and high sensitivity MRM (Multiple Reaction Monitoring) profiling in parallel to a full screen analysis.
# (§4) Following comprehensive analytical validation steps, the data for each analyte were normalized against data from pool samples. These samples were run in parallel through the whole process to account for process variability. The significance of treatment group values specific for sex, dose group and metabolite was determined by comparing means of the treated groups to the means of the respective untreated control groups using WELCH-test. Normalized treatment group values and their significance were fed into a database for further statistics and data mining processes.
# (§5) The changes of the group of plasma metabolites being indicative for liver toxicity after treatment of the rats are shown in the following tables: […]
# female rats = experiment: Plasma metabolite profiling (GC-MS/LC-MS) for liver toxicity markers, 28-day gavage study, female rats; assay type: in vivo, rat; details: female rats
# Experimental: as §1, §2, §3, §4, §5
smiles,measurement,setting,value
CN(C)C=O [Dimethylformamide],"1,2-Dioleoyl-sn-glycero-3-phosphatidyl-L-serine, change of plasma metabolite",male rats; mh7 (day 7),1.31
same,"4-Hydroxysphingosine, change of plasma metabolite",male rats; mh7 (day 7),2.14
same,"Arachidonic acid (C20:cis-[5,8,11,14]4), change of plasma metabolite",male rats; mh7 (day 7),1.68
same,"Behenic acid (C22:0), change of plasma metabolite",male rats; mh7 (day 7),2.07
same,"Ceramide (d18:1, C24:0), change of plasma metabolite",male rats; mh7 (day 7),1.72
same,"Ceramide (d18:1, C24:1), change of plasma metabolite",male rats; mh7 (day 7),1.71
same,"Cholesterol, change of plasma metabolite",male rats; mh7 (day 7),2.01
same,"Docosahexaenoic acid (C22:cis[4,7,10,13,16,19]6), change of plasma metabolite",male rats; mh7 (day 7),1.96
same,"Eicosatrienoic acid, change of plasma metabolite",male rats; mh7 (day 7),2.55
same,"Glycerolphosphate, lipid fraction, change of plasma metabolite",male rats; mh7 (day 7),1.86
same,"Heptadecanoic acid (C17:0), change of plasma metabolite",male rats; mh7 (day 7),1.27
same,"Lignoceric acid (C24:0), change of plasma metabolite",male rats; mh7 (day 7),2.04
same,"Linoleic acid (C18:cis[9,12]2), change of plasma metabolite",male rats; mh7 (day 7),1.71
same,"Nervonic acid (C24:1), change of plasma metabolite",male rats; mh7 (day 7),2.53
same,"Palmitic acid (C16:0), change of plasma metabolite",male rats; mh7 (day 7),1.38
same,"Phosphatidylcholine (C18:2, C20:4), change of plasma metabolite",male rats; mh7 (day 7),1.18
same,"alpha-Tocopherol, change of plasma metabolite",male rats; mh7 (day 7),2.69
same,"myo-Inositol-2-monophosphate, lipid fraction, change of plasma metabolite",male rats; mh7 (day 7),1.92
same,"1,2-Dioleoyl-sn-glycero-3-phosphatidyl-L-serine, change of plasma metabolite",male rats; mh14 (day 14),1.28
same,"4-Hydroxysphingosine, change of plasma metabolite",male rats; mh14 (day 14),2.07
same,"Arachidonic acid (C20:cis-[5,8,11,14]4), change of plasma metabolite",male rats; mh14 (day 14),1.74
same,"Behenic acid (C22:0), change of plasma metabolite",male rats; mh14 (day 14),2.15
same,"Ceramide (d18:1, C24:0), change of plasma metabolite",male rats; mh14 (day 14),1.40
same,"Ceramide (d18:1, C24:1), change of plasma metabolite",male rats; mh14 (day 14),1.70
same,"Cholesterol, change of plasma metabolite",male rats; mh14 (day 14),2.15
same,"Docosahexaenoic acid (C22:cis[4,7,10,13,16,19]6), change of plasma metabolite",male rats; mh14 (day 14),1.99
same,"Eicosatrienoic acid, change of plasma metabolite",male rats; mh14 (day 14),2.02
same,"Glycerolphosphate, lipid fraction, change of plasma metabolite",male rats; mh14 (day 14),1.67
same,"Heptadecanoic acid (C17:0), change of plasma metabolite",male rats; mh14 (day 14),1.51
same,"Lignoceric acid (C24:0), change of plasma metabolite",male rats; mh14 (day 14),2.22
same,"Linoleic acid (C18:cis[9,12]2), change of plasma metabolite",male rats; mh14 (day 14),1.70
same,"Nervonic acid (C24:1), change of plasma metabolite",male rats; mh14 (day 14),3.57
same,"Palmitic acid (C16:0), change of plasma metabolite",male rats; mh14 (day 14),1.64
same,"Phosphatidylcholine (C18:2, C20:4), change of plasma metabolite",male rats; mh14 (day 14),1.17
same,"alpha-Tocopherol, change of plasma metabolite",male rats; mh14 (day 14),2.46
same,"myo-Inositol-2-monophosphate, lipid fraction, change of plasma metabolite",male rats; mh14 (day 14),2.48
same,"1,2-Dioleoyl-sn-glycero-3-phosphatidyl-L-serine, change of plasma metabolite",male rats; mh28 (day 28),1.41
same,"4-Hydroxysphingosine, change of plasma metabolite",male rats; mh28 (day 28),2.35
same,"Arachidonic acid (C20:cis-[5,8,11,14]4), change of plasma metabolite",male rats; mh28 (day 28),1.55
same,"Behenic acid (C22:0), change of plasma metabolite",male rats; mh28 (day 28),2.24
same,"Ceramide (d18:1, C24:0), change of plasma metabolite",male rats; mh28 (day 28),1.63
same,"Ceramide (d18:1, C24:1), change of plasma metabolite",male rats; mh28 (day 28),1.88
same,"Cholesterol, change of plasma metabolite",male rats; mh28 (day 28),1.81
same,"Docosahexaenoic acid (C22:cis[4,7,10,13,16,19]6), change of plasma metabolite",male rats; mh28 (day 28),2.06
same,"Eicosatrienoic acid, change of plasma metabolite",male rats; mh28 (day 28),1.60
same,"Glycerolphosphate, lipid fraction, change of plasma metabolite",male rats; mh28 (day 28),1.59
same,"Heptadecanoic acid (C17:0), change of plasma metabolite",male rats; mh28 (day 28),1.25
same,"Lignoceric acid (C24:0), change of plasma metabolite",male rats; mh28 (day 28),2.52
same,"Linoleic acid (C18:cis[9,12]2), change of plasma metabolite",male rats; mh28 (day 28),1.49
same,"Nervonic acid (C24:1), change of plasma metabolite",male rats; mh28 (day 28),3.39
same,"Palmitic acid (C16:0), change of plasma metabolite",male rats; mh28 (day 28),1.41
same,"Phosphatidylcholine (C18:2, C20:4), change of plasma metabolite",male rats; mh28 (day 28),1.26
same,"alpha-Tocopherol, change of plasma metabolite",male rats; mh28 (day 28),1.87
same,"myo-Inositol-2-monophosphate, lipid fraction, change of plasma metabolite",male rats; mh28 (day 28),2.31
same,"1,2-Dioleoyl-sn-glycero-3-phosphatidyl-L-serine, change of plasma metabolite",female rats; fh7 (day 7),1.35
same,"4-Hydroxysphinganine, change of plasma metabolite",female rats; fh7 (day 7),1.79
same,"Arachidonic acid (C20:cis-[5,8,11,14]4), change of plasma metabolite",female rats; fh7 (day 7),2.04
same,"Behenic acid (C22:0), change of plasma metabolite",female rats; fh7 (day 7),2.15
same,"Ceramide (d18:1, C24:0), change of plasma metabolite",female rats; fh7 (day 7),1.64
same,"Cholesterol, change of plasma metabolite",female rats; fh7 (day 7),2.41
same,"Docosahexaenoic acid (C22:cis[4,7,10,13,16,19]6), change of plasma metabolite",female rats; fh7 (day 7),2.02
same,"Glycerol, lipid fraction, change of plasma metabolite",female rats; fh7 (day 7),1.64
same,"Glycerolphosphate, lipid fraction, change of plasma metabolite",female rats; fh7 (day 7),2.37
same,"Heptadecanoic acid (C17:0), change of plasma metabolite",female rats; fh7 (day 7),1.43
same,"ID28x493, change of plasma metabolite",female rats; fh7 (day 7),2.27
same,"Lignoceric acid (C24:0), change of plasma metabolite",female rats; fh7 (day 7),2.01
same,"Linoleic acid (C18:cis[9,12]2), change of plasma metabolite",female rats; fh7 (day 7),1.90
same,"Nervonic acid (C24:1), change of plasma metabolite",female rats; fh7 (day 7),2.51
same,"Palmitic acid (C16:0), change of plasma metabolite",female rats; fh7 (day 7),1.93
same,"Phosphate, lipid (Phospholipids), change of plasma metabolite",female rats; fh7 (day 7),1.51
same,"Stearic acid (C18:0), change of plasma metabolite",female rats; fh7 (day 7),1.62
same,"TAG No 1, change of plasma metabolite",female rats; fh7 (day 7),2.26
same,"Threonic acid, change of plasma metabolite",female rats; fh7 (day 7),1.49
same,"Tricosanoic acid (C23:0), change of plasma metabolite",female rats; fh7 (day 7),1.65
same,"1,2-Dioleoyl-sn-glycero-3-phosphatidyl-L-serine, change of plasma metabolite",female rats; fh14 (day 14),1.69
same,"4-Hydroxysphinganine, change of plasma metabolite",female rats; fh14 (day 14),2.26
same,"Arachidonic acid (C20:cis-[5,8,11,14]4), change of plasma metabolite",female rats; fh14 (day 14),1.93
same,"Behenic acid (C22:0), change of plasma metabolite",female rats; fh14 (day 14),2.48
same,"Ceramide (d18:1, C24:0), change of plasma metabolite",female rats; fh14 (day 14),2.13
same,"Cholesterol, change of plasma metabolite",female rats; fh14 (day 14),2.23
same,"Docosahexaenoic acid (C22:cis[4,7,10,13,16,19]6), change of plasma metabolite",female rats; fh14 (day 14),2.21
same,"Glycerol, lipid fraction, change of plasma metabolite",female rats; fh14 (day 14),1.88
same,"Glycerolphosphate, lipid fraction, change of plasma metabolite",female rats; fh14 (day 14),1.97
same,"Heptadecanoic acid (C17:0), change of plasma metabolite",female rats; fh14 (day 14),1.64
same,"ID28x493, change of plasma metabolite",female rats; fh14 (day 14),3.14
same,"Lignoceric acid (C24:0), change of plasma metabolite",female rats; fh14 (day 14),2.29
same,"Linoleic acid (C18:cis[9,12]2), change of plasma metabolite",female rats; fh14 (day 14),2.33
same,"Nervonic acid (C24:1), change of plasma metabolite",female rats; fh14 (day 14),2.69
same,"Palmitic acid (C16:0), change of plasma metabolite",female rats; fh14 (day 14),2.08
same,"Phosphate, lipid (Phospholipids), change of plasma metabolite",female rats; fh14 (day 14),1.35
same,"Stearic acid (C18:0), change of plasma metabolite",female rats; fh14 (day 14),1.67
same,"TAG No 1, change of plasma metabolite",female rats; fh14 (day 14),2.87
same,"Threonic acid, change of plasma metabolite",female rats; fh14 (day 14),1.37
same,"1,2-Dioleoyl-sn-glycero-3-phosphatidyl-L-serine, change of plasma metabolite",female rats; fh28 (day 28),1.47
same,"4-Hydroxysphinganine, change of plasma metabolite",female rats; fh28 (day 28),2.22
same,"Arachidonic acid (C20:cis-[5,8,11,14]4), change of plasma metabolite",female rats; fh28 (day 28),1.80
same,"Behenic acid (C22:0), change of plasma metabolite",female rats; fh28 (day 28),2.18
same,"Ceramide (d18:1, C24:0), change of plasma metabolite",female rats; fh28 (day 28),1.82
same,"Cholesterol, change of plasma metabolite",female rats; fh28 (day 28),2.08
same,"Docosahexaenoic acid (C22:cis[4,7,10,13,16,19]6), change of plasma metabolite",female rats; fh28 (day 28),1.76
same,"Glycerol, lipid fraction, change of plasma metabolite",female rats; fh28 (day 28),1.89
same,"Glycerolphosphate, lipid fraction, change of plasma metabolite",female rats; fh28 (day 28),2.35
same,"Heptadecanoic acid (C17:0), change of plasma metabolite",female rats; fh28 (day 28),1.48
same,"ID28x493, change of plasma metabolite",female rats; fh28 (day 28),2.02
same,"Lignoceric acid (C24:0), change of plasma metabolite",female rats; fh28 (day 28),2.45
same,"Linoleic acid (C18:cis[9,12]2), change of plasma metabolite",female rats; fh28 (day 28),2.37
same,"Nervonic acid (C24:1), change of plasma metabolite",female rats; fh28 (day 28),2.91
same,"Palmitic acid (C16:0), change of plasma metabolite",female rats; fh28 (day 28),1.93
same,"Phosphate, lipid (Phospholipids), change of plasma metabolite",female rats; fh28 (day 28),1.59
same,"Stearic acid (C18:0), change of plasma metabolite",female rats; fh28 (day 28),1.61
same,"TAG No 1, change of plasma metabolite",female rats; fh28 (day 28),3.81
same,"Threonic acid, change of plasma metabolite",female rats; fh28 (day 28),1.19
